The source of these data is patent US20120322060A1, “DIAGNOSIS AND MONITORING TREATMENT OF PSYCHIATRIC DISEASES WITH SPADIN AND RELATED METHODS” (CENTRE NATIONAL DE LE RECHERCHE SCIENTIFIQUE - CNRS -, priority 2011, published 2012).

“Also recorded” adds a separate entry of the source. No end group written: not given here.

The target in assay [1] is T1, TREK-1 (Mus musculus, UniProt P97438).
T1 sequence (P97438 1-426): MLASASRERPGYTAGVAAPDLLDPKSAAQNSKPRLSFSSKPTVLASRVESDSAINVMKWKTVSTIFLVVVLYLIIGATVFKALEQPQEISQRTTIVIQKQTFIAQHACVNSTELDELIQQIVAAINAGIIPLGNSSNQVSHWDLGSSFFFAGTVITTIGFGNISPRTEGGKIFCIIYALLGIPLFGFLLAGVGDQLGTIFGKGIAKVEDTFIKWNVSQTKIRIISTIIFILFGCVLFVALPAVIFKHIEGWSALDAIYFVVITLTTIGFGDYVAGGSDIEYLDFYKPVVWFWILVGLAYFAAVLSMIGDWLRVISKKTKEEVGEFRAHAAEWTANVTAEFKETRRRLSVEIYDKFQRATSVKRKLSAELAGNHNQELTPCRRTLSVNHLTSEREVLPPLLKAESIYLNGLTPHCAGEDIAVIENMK
The assay can be described thus: Whole-cell patch-clamp on cultured pyramidal neurons from hippocampus. The arrangement: endogenous in cells; host or cells: primary hippocampal pyramidal neurons from newborn mice. As to conditions: 20 μM fluoxetine. It counts as cell-based. The method, then:
A, Cultured pyramidal neuron from hippocampus, with on top, the patch-clamp pipette. Neurons were chosen according to their morphology. B, Current recorded in response to ramps of potential obtained in the various conditions indicated (aa: arachidonic acid: 10 μM, Spadin: 1[…]μM, Fluoxetine: 20 μM). Neurons were recorded in the whole-cell configuration of the patch-clamp technique. In voltage-clamp, ramps of potential from −90 mV to 70 mV were applied every 10 sec. The % variation of the current amplitude was always measured at −50 mV. The currents were recorded in response to such ramps in control conditions and in the presence of a cocktail of potassium blockers suitable to isolate the TREK currents (10 mM tetraethyl ammonium (TEA), 3 mM 4-aminopyridine (4-AP), 50 nM charybdotoxin, 10 μM glibenclamide, 100 nM apamin). […] The blocks were reversible. C, Time course of spadin and fluoxetine effects. Applications are indicated by the horizontal bars.
Cortical neurons were prepared from 14 old mouse embryos whereas hippocampal neurons were prepared from new born mice. Briefly, dissected brain areas were dissociated and neurons were plated on polylysine-treated 35 or 60 mm dishes and maintained in culture in Neurobasal medium supplemented with B27, Glutamax and antibiotics for 2 to 3 weeks before to be used for electrophsysiological or biochemical experiments.

For assay [2], the system named is mice. The assay can be described thus: Porsolt Forced Swim Test (FST) in mice. The class given is in vivo, mouse. The procedure: Mice (Janvier, France) were placed individually in cylinders (height: 30 cm, diameter: 15 cm) filled with 12 cm deep water (temperature: 22±1° C.) for 6 min. The total period of immobility was recorded during the last 4 min.
In assay [3] the test system is dentate gyrus of the mouse hippocampus. The assay can be described thus: Hippocampal neurogenesis (BrdU / DCX labeling). It counts as in vivo. The method, then:
Twenty-four hours after the injection of BrdU (120 mg per kg of body weight in a 300 μl bolus), mice were euthanized and transcardially perfused with 4% cold paraformaldehyde. Serial sections of the brains were cut (40 μm) throughout the entire hippocampus on a vibratome (Leica). Every sixth section throughout the hippocampus was processed for BrdU or doublecortin (DCX) immunohistochemistry, as previously described. For each immunodetection, slides were first incubated overnight at 4° C. with a mouse monoclonal anti-BrdU antibody (1:200; Becton-Dickinson) or a goat anti-DCX (1:400, Santa Cruz Laboratories). For chromogenic immunodetection, sections were then incubated for 1 hour in biotin-conjugated species-specific secondary antibodies (1:100; Vector Laboratories) followed by a peroxidase-avidin complex solution according to the manufacturer's protocol. The peroxidase activity of immune complexes was visualized with DAB staining using the VectaStain ABC kit (Vector Laboratories). For fluorescent double-labeling, performed to determine the cell phenotype, sections were incubated overnight at 4° C. with anti-sheep BrdU (1:200, Interchim), anti-goat DCX (1:200, Santa Cruz Laboratories), or an anti-GFAP (Glial Fibrillary acidic protein, marker for astrocytes, 1:250, Dako). […] All BrdU-labeled cells in the granular cell layer and subgranular zone (SGZ) were counted in each section (n=10 and 5 mice per group) at 400× and 1000× magnification under a light microscope (Olympus) by an experimenter blinded to the study code. The total number of BrdU-positive cells per section was multiplied by 6 to obtain the total number of cells per dentate gyrus. The counting of BrdU/DCX labeled cells was performed using a Laser Scanning Confocal Microscope (TCS SP, Leica) equipped with a DMIRBE inverted microscope.

The test system of assay [4] is mice. The assay can be described thus: Novelty-Suppressed Feeding test (NSF). The class given is in vivo, mouse. As to conditions: 4 days; spadin i.v. 10^-6 M, fluoxetine i.p. 3 mg/kg. The method, then:
NSF paradigm is a conflict test that elicits competing motivations: the drive to eat and the fear of venturing into the center of a bright arena. Latency to begin eating is used as an index of anxiety- and depression-like behavior. After 4 day treatment (saline or spadin, i.v.) and 24 hours food-deprivation, mice were presented with a food pellet placed in the center of a brightly plastic box (50×50×20 cm). Latency to begin eating was measured as previously described.

Assay [5] concerns the target T1, TREK-1. The assay can be described thus: Whole-cell patch-clamp on CA3 pyramidal neurons in hippocampus brain slices. The class given is cell-based. The arrangement: a cellular network that endogenously expresses both TREK-1 and NTSR3/Sortilin; from tissue; host or cells: mouse hippocampal brain slices, CA3 pyramidal neurons. To be noted: wild-type CA3 neurons, no aa. In general terms: The patch-clamp technique gives a direct electrical read-out from membranes.

Assay [6] relates to mice. The assay can be described thus: Corticosterone assay after tube restraint stress. It counts as in vivo, mouse. As to conditions: 30 min after 10 min tube restraint; spadin i.p. 10^-5 M. The method, then: Mice were individually housed for at least 12 hours before blood sample collection. Serum samples, collected in the morning were obtained by retroorbital puncture before and 30 min after the end of a 10-min tube restraint. Levels of corticosterone were measured by radioimmunoassay using a commercially available kit (MP Biomedicals).

Assay [7] has as its system mice. The assay can be described thus: Tail Suspension Test (TST). The class given is in vivo, mouse. To be noted: subchronic, 4 days; spadin i.v. 10^-6 M, fluoxetine 3 mg/kg. The procedure: Mice were suspended by the tail. […] The immobility time was recorded during a 6 min test session.
For assay [8], the target named is T1, TREK-1. The assay can be described thus: Whole-cell patch-clamp on TREK-1 transfected COS-7 cells. It counts as cell-based. More on the design: GFP; expressed in transfected cells; host or cells: COS-7 (DEAE-dextran transfection). To be noted: after 90 sec of application. The procedure: All electrophysiological experiments were done on COS-7 cells seeded at a density of 20,000 cells/35-mm dish 24 h before transfection. Cells were transfected by the classical DEAE-dextran method with TREK-1-GFP plasmids (0.1 μg/μL). Cells were visualized 48-72 h after transfection using fluorescence.
The whole-cell patch-clamp technique was used to evaluate TREK-1 potassium channel current by using a RK 400 patch-clamp amplifier (Axon Instruments, U.S.A.), as previously described. Currents were lowpass filtered at 3 kHz, digitized at 10 kHz using a 12-bit analog-to-digital converter. […] The bath solution contained (in mM): 150 NaCl, 5 KCl, 3 MgCl2, 1 CaCl2, and 10 HEPES, adjusted to pH 7.4 with NaOH; the patch pipette solution contained (in mM): 155 KCl, 3 MgCl2, 5 EGTA, and 10 HEPES, adjusted to pH 7.2 with KOH. Cells were clamped at −80 mV and voltage changes were either applied by ramp (from −100 to 50 mV, 1 s in duration) or by step (from −100 to 40 mV, 1.5 s in duration). Cells were continuously superfused with a microperfusion system. The pipette capacitance was not subtracted from total membrane capacitance and there was no leak substraction. All experiments were done at room temperature (21° C. to 22° C.) and in the presence of a cocktail of potassium channel inhibitors (K^+ blockers: 10 mM tetraethyl ammonium (TEA), 3 mM 4-aminopyridine (4-AP), 50 nM charybdotoxin, 10 μM glibenclamide, 100 nM apamin).
Pclamp software was used to analyze currents recorded in the whole-cell mode measured at 0 mV. Results are expressed as means±SD. To obtain the IC50 value for dose-dependent inhibition, experimental data were fitted with a standard sigmoidal function.

Assay [9] deals with T1, TREK-1. The assay can be described thus: Competition with 125I-spadin for binding to TREK-1 transfected COS-7 cell homogenates. The arrangement: expressed in transfected cells; host or cells: COS-7 (DEAE-dextran transfection). As to conditions: TREK-1 transfected COS-7 homogenates, read-out: affinity for TREK-1.
Experimental: Experiments were performed using COS-7 cells (10^6 cells per diameter 100 dish) transfected with TREK-1 (2 μg/dish) in the presence or in the absence of NTSR3/sortilin (2 μg/dish) using the DEAE-dextran protocol.
Incubations were terminated by addition of 2 ml of ice-cold binding buffer followed by filtration through cellulose acetate filters (Sartorius, Göttingen, Germany) and washing twice with 2 ml of ice-cold buffer. Radioactivity on filters was counted with a gamma-counter.
The target of assay [10] is TREK-1 channel (expressed by transfection in COS-7 cells). The assay can be described thus: cell-based or functional assay.
Assay [11] deals with NTSR3/Sortilin (endogenous, C13NJ microglial cell line). The assay can be described thus: cell-based or functional assay.
Assay [12] shares this target. The assay can be described thus: competition with 0.2 nM 125I-NT on C13NJ cell homogenates, filtration.
The target of assay [13] is TREK-1 channel (expressed by transfection in COS-7 cells). The assay can be described thus: competition with 0.2 nM 125I-spadin on TREK-1 transfected COS-7 cell homogenates, filtration.

TREK-1 channel (expressed by transfection in COS-7 cells), sequence (O95069 whole entry): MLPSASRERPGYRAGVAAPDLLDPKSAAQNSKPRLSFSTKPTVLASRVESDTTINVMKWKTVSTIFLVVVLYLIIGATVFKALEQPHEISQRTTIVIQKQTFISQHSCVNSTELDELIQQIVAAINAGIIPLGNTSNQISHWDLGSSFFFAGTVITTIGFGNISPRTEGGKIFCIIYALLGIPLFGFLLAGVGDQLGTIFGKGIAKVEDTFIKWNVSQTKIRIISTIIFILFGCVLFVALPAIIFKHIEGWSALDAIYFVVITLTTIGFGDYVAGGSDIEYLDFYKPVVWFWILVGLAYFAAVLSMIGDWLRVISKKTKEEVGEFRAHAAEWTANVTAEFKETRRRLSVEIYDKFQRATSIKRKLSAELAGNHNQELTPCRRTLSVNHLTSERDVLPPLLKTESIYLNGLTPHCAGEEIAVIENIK
NTSR3/Sortilin (endogenous, C13NJ microglial cell line), sequence (Q99523 78-831): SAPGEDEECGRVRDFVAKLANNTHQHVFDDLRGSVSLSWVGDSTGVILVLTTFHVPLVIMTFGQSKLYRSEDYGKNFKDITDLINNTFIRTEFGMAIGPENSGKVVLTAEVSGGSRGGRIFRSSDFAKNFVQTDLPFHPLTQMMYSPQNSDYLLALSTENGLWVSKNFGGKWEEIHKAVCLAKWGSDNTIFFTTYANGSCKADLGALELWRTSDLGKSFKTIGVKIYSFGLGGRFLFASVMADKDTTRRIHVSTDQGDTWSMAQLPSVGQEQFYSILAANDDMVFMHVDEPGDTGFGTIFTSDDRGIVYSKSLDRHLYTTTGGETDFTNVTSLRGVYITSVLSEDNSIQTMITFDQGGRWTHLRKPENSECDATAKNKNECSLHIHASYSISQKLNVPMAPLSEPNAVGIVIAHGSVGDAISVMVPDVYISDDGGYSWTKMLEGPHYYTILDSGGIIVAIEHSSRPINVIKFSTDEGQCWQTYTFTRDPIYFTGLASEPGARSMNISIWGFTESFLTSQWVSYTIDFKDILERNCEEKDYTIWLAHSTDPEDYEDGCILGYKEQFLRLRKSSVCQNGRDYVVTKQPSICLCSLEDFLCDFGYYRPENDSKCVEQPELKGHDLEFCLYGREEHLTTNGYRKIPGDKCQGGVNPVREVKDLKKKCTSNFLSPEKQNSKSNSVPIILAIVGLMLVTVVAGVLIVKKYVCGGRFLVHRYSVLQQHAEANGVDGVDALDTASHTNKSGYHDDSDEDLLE

In the case of `CNCCC(Oc1ccc(C(F)(F)F)cc1)c1ccccc1` (stereo not shown) [fluoxetine, Fluoxetine, reference compound], at TREK-1 [1], the “block of arachidonic acid evoked current (putative TREK current)” value is “fully blocked”. Besides, in the assay with mice [2] (chronic, 15 days, spadin 10^-6 M, fluoxetine 1 mg/kg), the “reduction of time of immobility” value is “around 30%”. Moreover, the “reduction of time spent immobile” value is “had no effect; also recorded: without effect” in the assay with mice [2] (subchronic, 4 days, spadin i.v. 10^-6 M, fluoxetine 3 mg/kg) and “had no effect; also recorded: without effect” with mice [7]. Further, in assay [3] (4-day treatment, spadin i.p. 10^-5 M), the “number of BrdU-positive cells in the SGZ versus saline” value is given as “had no effect”. The “number of BrdU-positive cells versus saline” value in [3] (15 days) is “significant increase”. Further, the “latency to feed versus saline” value in the assay with mice [4] is given as “had no effect”. In addition, the “inhibition of the current recorded in presence of potassium blockers, substance alone” value on TREK-1 [5] was found to be 13.0 ± 3.8%. The “reduction of stress-induced increase in corticosterone levels versus saline” value in the assay on mice [6] came to 59.1%.
Turning to “QDRLDAPPPPAAPLPR [N-terminal fragment Gln1-Arg16, reference compound]”, the “inhibition of current increase induced by 10 μM aa” value at TREK-1 [8] is given as “unable to inhibit”. At TREK-1 [9], the Kd was found to be 1000 nM.
APLPRWSGPIGVSWGLR [spadin]: in assay [10], the IC50 of dose-dependent inhibition of TREK-1 current at 0 mV was 70.7 nM and the block of arachidonic acid-stimulated TREK-1 current (whole-cell patch clamp, transfected COS-7 cells, 100 nM spadin) came out at 63%. In assay [11], the C13NJ cell migration induced by 10 nM NT in the presence of 1 µM spadin (% of migration with 10% FCS) is 6.2%. The same molecule yielded an affinity in assay [12] of 8 nM. In assay [13], the affinity was 10 nM.
